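Test compounds were applied to cells in 96-well plates for 48 hours at 5 doses. At the TGI there is no net growth.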
Columns and labels:
Assay in all cases: NCI tumour cell line growth inhibition, 48 h
786-0 renal = tested on: 786-0 renal
HT29 colon = tested on: HT29 colon
MDA-MB-435 = tested on: MDA-MB-435
SW-620 colon = tested on: SW-620 colon
HL-60(TB) leukemia = tested on: HL-60(TB) leukemia
SK-OV-3 ovarian = tested on: SK-OV-3 ovarian
HS 578T breast = tested on: HS 578T breast
COLO 205 colon = tested on: COLO 205 colon
HCC-2998 colon = tested on: HCC-2998 colon
U251 CNS = tested on: U251 CNS
A549 NSCLC = tested on: A549 NSCLC
UACC-257 melanoma = tested on: UACC-257 melanoma
HOP-62 NSCLC = tested on: HOP-62 NSCLC
OVCAR-8 ovarian = tested on: OVCAR-8 ovarian
SNB-19 CNS = tested on: SNB-19 CNS
IGROV1 ovarian = tested on: IGROV1 ovarian
RPMI-8226 leukemia = tested on: RPMI-8226 leukemia
HOP-92 NSCLC = tested on: HOP-92 NSCLC
NCI-H23 lung = tested on: NCI-H23 lung
CAKI-1 renal = tested on: CAKI-1 renal
M14 melanoma = tested on: M14 melanoma
SNB-75 CNS = tested on: SNB-75 CNS
KM12 colon = tested on: KM12 colon
SF-539 CNS = tested on: SF-539 CNS
UACC-62 melanoma = tested on: UACC-62 melanoma
BT-549 breast = tested on: BT-549 breast
MDA-N = tested on: MDA-N
MCF7 breast = tested on: MCF7 breast
HCT-116 colon = tested on: HCT-116 colon
PC-3 prostate = tested on: PC-3 prostate
EKVX NSCLC = tested on: EKVX NSCLC
SF-268 CNS = tested on: SF-268 CNS
OVCAR-5 ovarian = tested on: OVCAR-5 ovarian
MALME-3M melanoma = tested on: MALME-3M melanoma
MOLT-4 leukemia = tested on: MOLT-4 leukemia
SR leukemia = tested on: SR leukemia
NCI-H460 lung = tested on: NCI-H460 lung
NCI-H522 lung = tested on: NCI-H522 lung
OVCAR-3 ovarian = tested on: OVCAR-3 ovarian
A498 renal = tested on: A498 renal
DU-145 prostate = tested on: DU-145 prostate
T-47D breast = tested on: T-47D breast
SN12C renal = tested on: SN12C renal
HCT-15 colon = tested on: HCT-15 colon
MDA-MB-231 breast = tested on: MDA-MB-231 breast
CCRF-CEM leukemia = tested on: CCRF-CEM leukemia
OVCAR-4 ovarian = tested on: OVCAR-4 ovarian
SK-MEL-5 melanoma = tested on: SK-MEL-5 melanoma
SF-295 CNS = tested on: SF-295 CNS
LOX IMVI melanoma = tested on: LOX IMVI melanoma
RXF 393 renal = tested on: RXF 393 renal
NCI/ADR-RES ovarian = tested on: NCI/ADR-RES ovarian
TK-10 renal = tested on: TK-10 renal
SK-MEL-2 melanoma = tested on: SK-MEL-2 melanoma
UO-31 renal = tested on: UO-31 renal
K-562 leukemia = tested on: K-562 leukemia
ACHN renal = tested on: ACHN renal
SK-MEL-28 melanoma = tested on: SK-MEL-28 melanoma

Question: What does the source list for `COc1cc2oc3c(c(=O)c2c(O)c1/C=C/C(C)C)CCC(C)(C)Oc1cc(O)ccc1-3`?
Answer: TGI (786-0 renal): 47.1 µM; TGI (HT29 colon): 19.2 µM; TGI (MDA-MB-435): 39.8 µM; TGI (SW-620 colon): 51.8 µM; TGI (HL-60(TB) leukemia): 45.4 µM; TGI (SK-OV-3 ovarian): 34.8 µM; TGI (HS 578T breast): 31.2 µM; TGI (COLO 205 colon): 66.9 µM; TGI (HCC-2998 colon): 27.5 µM; TGI (U251 CNS): 66.1 µM; TGI (A549 NSCLC): 27.1 µM; TGI (UACC-257 melanoma): 29.2 µM; TGI (HOP-62 NSCLC): 28.9 µM; TGI (OVCAR-8 ovarian): 31.4 µM; TGI (SNB-19 CNS): 30.7 µM; TGI (IGROV1 ovarian): 40.6 µM; TGI (RPMI-8226 leukemia): 45.5 µM; TGI (HOP-92 NSCLC): 34.3 µM; TGI (NCI-H23 lung): 30.1 µM; TGI (CAKI-1 renal): 30.6 µM; TGI (M14 melanoma): 23 µM; TGI (SNB-75 CNS): 33.1 µM; TGI (KM12 colon): 21.8 µM; TGI (SF-539 CNS): 26.2 µM; TGI (UACC-62 melanoma): 30.3 µM; TGI (BT-549 breast): 31.6 µM; TGI (MDA-N): 25.6 µM; TGI (MCF7 breast): 26.7 µM; TGI (HCT-116 colon): 65.9 µM; TGI (PC-3 prostate): 28.4 µM; TGI (EKVX NSCLC): 47.6 µM; TGI (SF-268 CNS): 32.2 µM; TGI (OVCAR-5 ovarian): 30.7 µM; TGI (MALME-3M melanoma): 41.4 µM; TGI (MOLT-4 leukemia): 35 µM; TGI (SR leukemia): 20 µM; TGI (NCI-H460 lung): 21.3 µM; TGI (NCI-H522 lung): 38.1 µM; TGI (OVCAR-3 ovarian): 29 µM; TGI (A498 renal): 42.6 µM; TGI (DU-145 prostate): 97.9 µM; TGI (T-47D breast): > 100 µM; TGI (SN12C renal): 27.4 µM; TGI (HCT-15 colon): 21.8 µM; TGI (MDA-MB-231 breast): 32.4 µM; TGI (CCRF-CEM leukemia): 57.6 µM; TGI (OVCAR-4 ovarian): 28.6 µM; TGI (SK-MEL-5 melanoma): 39.9 µM; TGI (SF-295 CNS): 27.7 µM; TGI (LOX IMVI melanoma): > 100 µM; TGI (RXF 393 renal): 24.4 µM; TGI (NCI/ADR-RES ovarian): 39.3 µM; TGI (TK-10 renal): 28.7 µM; TGI (SK-MEL-2 melanoma): 30.2 µM; TGI (UO-31 renal): 25.8 µM; TGI (K-562 leukemia): 13.6 µM; TGI (ACHN renal): 27.1 µM; TGI (SK-MEL-28 melanoma): 40.2 µM
